Assay results reported in ChEMBL document CHEMBL1201862, “PubChem BioAssay data set” (2004).
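Each compound was tested at five concentrations against cells in 96-well plates for 48 hours. The concentration for 50% growth inhibition is given as GI50.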 Active and inactive are the calls of the source. Rule as the data show it: active = GI50 up to about 1.1 µM and inactive = higher.

Key:
Assay in all cases: NCI anticancer screen, dose series, 48 h
TK-10 = system: TK-10
NCI-H226 = system: NCI-H226
CAKI-1 = system: CAKI-1
SK-MEL-5 = system: SK-MEL-5
OVCAR-4 = system: OVCAR-4
DU-145 = system: DU-145
HOP-92 = system: HOP-92
OVCAR-5 = system: OVCAR-5
ACHN = system: ACHN
SF-268 = system: SF-268
SW-620 = system: SW-620
RXF 393 = system: RXF 393
SF-539 = system: SF-539
EKVX = system: EKVX
NCI/ADR-RES = system: NCI/ADR-RES
IGROV-1 = system: IGROV-1
SNB-75 = system: SNB-75
HCT-116 = system: HCT-116
A549 = system: A549
HT-29 = system: HT-29
OVCAR-3 = system: OVCAR-3
COLO 205 = system: COLO 205
PC-3 = system: PC-3
MDA-MB-231 = system: MDA-MB-231
M14 = system: M14
SNB-19 = system: SNB-19
SN12C = system: SN12C
HCT-15 = system: HCT-15
KM12 = system: KM12
U-251 = system: U-251
NCI-H23 = system: NCI-H23
SK-MEL-28 = system: SK-MEL-28
MDA-N = system: MDA-N
OVCAR-8 = system: OVCAR-8
MDA-MB-435 = system: MDA-MB-435
SF-295 = system: SF-295
MCF7 = system: MCF7
786-0 = system: 786-0
Malme-3M = system: Malme-3M
NCI-H460 = system: NCI-H460
UO-31 = system: UO-31
UACC-257 = system: UACC-257
SK-OV-3 = system: SK-OV-3
Hs-578T = system: Hs-578T
LOX IMVI = system: LOX IMVI
K562 = system: K562
RPMI-8226 = system: RPMI-8226
HCC 2998 = system: HCC 2998
CCRF-CEM = system: CCRF-CEM
SR = system: SR
UACC-62 = system: UACC-62
MOLT-4 = system: MOLT-4
HL-60 = system: HL-60
SK-MEL-2 = system: SK-MEL-2
T47D = system: T47D
HOP-62 = system: HOP-62
A498 = system: A498

CCC1=[N+]([O-])C(C)(C)NC1(C)C
GI50 (TK-10): > 10 µM (inactive)
GI50 (NCI-H226): 4.95 µM (inactive)
GI50 (CAKI-1): > 10 µM (inactive)
GI50 (SK-MEL-5): > 10 µM (inactive)
GI50 (OVCAR-4): > 10 µM (inactive)
GI50 (DU-145): > 10 µM (inactive)
GI50 (HOP-92): > 10 µM (inactive)
GI50 (OVCAR-5): > 10 µM (inactive)
GI50 (ACHN): > 10 µM (inactive)
GI50 (SF-268): > 10 µM (inactive)
GI50 (SW-620): > 10 µM (inactive)
GI50 (RXF 393): > 10 µM (inactive)
GI50 (SF-539): > 10 µM (inactive)
GI50 (EKVX): > 10 µM (inactive)
GI50 (NCI/ADR-RES): > 10 µM (inactive)
GI50 (IGROV-1): > 10 µM (inactive)
GI50 (SNB-75): > 10 µM (inactive)
GI50 (HCT-116): > 10 µM (inactive)
GI50 (A549): > 10 µM (inactive)
GI50 (HT-29): > 10 µM (inactive)
GI50 (OVCAR-3): > 10 µM (inactive)
GI50 (COLO 205): > 10 µM (inactive)
GI50 (PC-3): > 10 µM (inactive)
GI50 (MDA-MB-231): > 10 µM (inactive)
GI50 (M14): > 10 µM (inactive)
GI50 (SNB-19): > 10 µM (inactive)
GI50 (SN12C): > 10 µM (inactive)
GI50 (HCT-15): > 10 µM
GI50 (KM12): > 10 µM (inactive)
GI50 (U-251): > 10 µM (inactive)
GI50 (NCI-H23): > 10 µM (inactive)
GI50 (SK-MEL-28): > 10 µM (inactive)
GI50 (MDA-N): > 10 µM (inactive)
GI50 (OVCAR-8): > 10 µM (inactive)
GI50 (MDA-MB-435): > 10 µM (inactive)
GI50 (SF-295): > 10 µM (inactive)

COc1ccc(/C=C\c2cc(OC)c(OC)c(OC)c2)cc1OC(=O)C(N)CCC(=O)O (stereo not given)
GI50 (NCI-H226): 0.00123 µM (active)
GI50 (MCF7): 0.00187 µM (active)
GI50 (A549): 0.000944 µM (active)
GI50 (HT-29): 2.34 µM (inactive)
GI50 (786-0): 0.000792 µM (active)

CCOC(=O)C1Cc2ccc(C)cc2C1=O (stereo not given)
GI50 (TK-10): > 100 µM (inactive)
GI50 (Malme-3M): 70 µM (inactive)
GI50 (NCI-H226): > 100 µM (inactive)
GI50 (CAKI-1): > 100 µM (inactive)
GI50 (SK-MEL-5): 72.1 µM (inactive)
GI50 (MCF7): > 100 µM (inactive)
GI50 (OVCAR-4): 81.7 µM (inactive)
GI50 (NCI-H460): > 100 µM (inactive)
GI50 (UO-31): 48.6 µM (inactive)
GI50 (DU-145): > 100 µM (inactive)
GI50 (HOP-92): > 100 µM (inactive)
GI50 (UACC-257): > 100 µM (inactive)
GI50 (OVCAR-5): > 100 µM (inactive)
GI50 (SK-OV-3): > 100 µM (inactive)
GI50 (ACHN): > 100 µM (inactive)
GI50 (SF-268): 79.3 µM (inactive)
GI50 (SW-620): 88.1 µM (inactive)
GI50 (Hs-578T): > 100 µM (inactive)
GI50 (SF-539): > 100 µM (inactive)
GI50 (EKVX): > 100 µM (inactive)
GI50 (NCI/ADR-RES): 85.1 µM (inactive)
GI50 (LOX IMVI): 62.5 µM (inactive)
GI50 (K562): 31.4 µM (inactive)
GI50 (RPMI-8226): 41.1 µM (inactive)
GI50 (HCC 2998): > 100 µM (inactive)
GI50 (CCRF-CEM): 34 µM (inactive)
GI50 (IGROV-1): 70.6 µM (inactive)
GI50 (SNB-75): > 100 µM (inactive)
GI50 (SR): 31.7 µM (inactive)
GI50 (HCT-116): > 100 µM (inactive)
GI50 (UACC-62): 49.1 µM (inactive)
GI50 (A549): > 100 µM (inactive)
GI50 (HT-29): > 100 µM (inactive)
GI50 (OVCAR-3): 46.9 µM (inactive)
GI50 (COLO 205): > 100 µM (inactive)
GI50 (PC-3): > 100 µM (inactive)
GI50 (MDA-MB-231): > 100 µM (inactive)
GI50 (M14): > 100 µM (inactive)
GI50 (SN12C): 82.6 µM (inactive)
GI50 (HCT-15): 61.4 µM
GI50 (MOLT-4): 39.4 µM (inactive)
GI50 (KM12): > 100 µM (inactive)
GI50 (HL-60): 23.6 µM (inactive)
GI50 (U-251): 58.1 µM (inactive)
GI50 (SK-MEL-2): > 100 µM (inactive)
GI50 (NCI-H23): 55.6 µM (inactive)
GI50 (SK-MEL-28): 23.8 µM (inactive)
GI50 (T47D): > 100 µM (inactive)
GI50 (MDA-N): > 100 µM (inactive)
GI50 (HOP-62): > 100 µM (inactive)
GI50 (OVCAR-8): > 100 µM (inactive)
GI50 (MDA-MB-435): 54.5 µM (inactive)
GI50 (786-0): > 100 µM (inactive)
GI50 (SF-295): > 100 µM (inactive)

CC(=O)OC(C)c1cc2c(s1)C(=O)c1c(C(C)OC(C)=O)csc1C2=O (stereo not given)
GI50 (TK-10): 2.29 µM (inactive)
GI50 (NCI-H226): 1.37 µM (inactive)
GI50 (MCF7): 0.662 µM (active)
GI50 (OVCAR-4): 1.3 µM (inactive)
GI50 (NCI-H460): 0.5 µM (active)
GI50 (UO-31): 1.55 µM (inactive)
GI50 (DU-145): 0.586 µM (active)
GI50 (HOP-92): 3.29 µM (inactive)
GI50 (OVCAR-5): 1.97 µM (inactive)
GI50 (SK-OV-3): 3.6 µM (inactive)
GI50 (ACHN): 1.42 µM (inactive)
GI50 (SF-268): 3.01 µM (inactive)
GI50 (SW-620): 0.0545 µM (active)
GI50 (RXF 393): 1.31 µM (inactive)
GI50 (SF-539): 1.11 µM (active)
GI50 (EKVX): 1.74 µM (inactive)
GI50 (NCI/ADR-RES): 1.26 µM (inactive)
GI50 (K562): 1.01 µM (active)
GI50 (RPMI-8226): 1.43 µM (inactive)
GI50 (HCC 2998): 1.73 µM (inactive)
GI50 (CCRF-CEM): 1.49 µM (inactive)
GI50 (IGROV-1): 1.68 µM (inactive)
GI50 (SNB-75): 2.74 µM (inactive)
GI50 (SR): > 100 µM (inactive)
GI50 (HCT-116): 1.66 µM (inactive)
GI50 (A549): 1.97 µM (inactive)
GI50 (HT-29): 2.21 µM (inactive)
GI50 (COLO 205): 1.91 µM (inactive)
GI50 (PC-3): 2.3 µM (inactive)
GI50 (MDA-MB-231): 1.55 µM (inactive)
GI50 (A498): 2.13 µM (inactive)
GI50 (SN12C): 0.682 µM (active)
GI50 (HCT-15): 1.58 µM
GI50 (MOLT-4): 1.95 µM (inactive)
GI50 (KM12): 1.25 µM (inactive)
GI50 (U-251): 1.18 µM (inactive)
GI50 (T47D): 1.85 µM (inactive)
GI50 (HOP-62): 1.24 µM (inactive)
GI50 (786-0): 1.89 µM (inactive)
GI50 (SF-295): 1.28 µM (inactive)
